Structures can show the parent of a compound that is named as a salt.
Biological target: T1, Cloned Human Serotonin Receptor, Subtype 7 (h5HT7) (Homo sapiens, UniProt P34969)
T1 construct: purchased PerkinElmer 6120512; host or cells: CHO cells (membranes coated on Basic FlashPlate SMP200)
Assay: Radioligand binding assay, cloned human serotonin receptor subtype 7 (h5HT7) expressed in CHO cells, [125I]LSD
Conditions: for IC50: [125I]LSD 0.82 nM, h5HT7 membranes from CHO cells, read-out: 5-HT7 IC50; for inhibition at 1 µM: compound at 10^−6 M, read-out: 5-HT7 %-Inhib. (10^−6 M)
Procedure: Radioligand binding assays were performed using the Cloned Human Serotonin Receptor, Subtype 7 (h5HT7), expressed in CHO cells, coated on Flashplate (Basic FlashPlate Cat.: SMP200) from PerkinElmer (Cat.: 6120512). The protocol assay was essentially the recommended protocol in the Technical Data Sheet by PerkinEmer Life and Analytical Sciences. The Mass membrane protein/well was typically 12 μg and the Receptor/well was about 9-10 fmoles. The Flashplate were let equilibrate at room temperature for one hour before the addition of the components of the assay mixture. The binding buffer was: 50 mM Tris-HCl, pH 7.4, containing 10 mM MgCl2, 0.5 mM EDTA and 0.5% BSA. The radioligand was [^125I]LSD at a final concentration of 0.82 nM. Nonspecific binding was determined with 50 μM of Clozapine. The assay volume was 25 μl. TopSeal-A were applied onto Flashplate microplates and they were incubated at room temperature for 240 minutes in darkness. The radioactivity were quantified by liquid scintillation spectrophotometry (Wallac 1450 Microbeta Trilux) with a count delay of 4 minutes prior to counting and a counting time of 30 seconds per well. Competition binding data were analyzed by using the LIGAND program (Munson and Rodbard, LIGAND: A versatile, computerized approach for characterization of ligand-binding systems. Anal. Biochem. 107: 220-239, 1980) and assays were performed in triplicate determinations for each point.

T1 sequence (P34969 whole entry): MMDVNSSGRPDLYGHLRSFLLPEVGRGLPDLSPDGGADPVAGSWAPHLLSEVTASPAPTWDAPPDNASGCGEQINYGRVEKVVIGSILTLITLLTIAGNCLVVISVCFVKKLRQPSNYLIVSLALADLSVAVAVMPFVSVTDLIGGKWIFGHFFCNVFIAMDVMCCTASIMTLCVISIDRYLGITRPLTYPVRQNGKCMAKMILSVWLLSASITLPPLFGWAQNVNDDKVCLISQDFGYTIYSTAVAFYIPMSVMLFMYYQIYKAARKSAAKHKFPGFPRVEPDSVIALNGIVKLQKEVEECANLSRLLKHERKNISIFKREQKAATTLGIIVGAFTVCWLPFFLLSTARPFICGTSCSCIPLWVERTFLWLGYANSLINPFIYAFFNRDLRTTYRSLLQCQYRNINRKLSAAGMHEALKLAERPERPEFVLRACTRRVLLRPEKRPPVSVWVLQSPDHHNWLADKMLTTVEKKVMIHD

SMILES | IC50 [µM] | inhibition at 1 µM [%] | inhibition at 0.1 µM (compound at 10^−7 M, read-out: 5-HT7 %-Inhib. (10^−7 M)) [%]
Cc1nn(C)c(C)c1-c1cccc2c1CC[C@H](N)C2 [Example O, (2S)-5-(1,3,5Trimethyl-1H-pyrazol-4-yl)-1,2,3,4-tetrahydro-naphthalen-2-ylamine dihydrochloride] | 0.025 ± 0.0038 | 79 | 47.2
Cc1nn(C)c(C)c1-c1cccc2c1CC[C@H](NC(C)C)C2 [Example P, (2S)-Isopropyl-[5-(1,3,5-trimethyl-1H-pyrazol-4-yl)-1,2,3,4-tetrahydro-naphthalen-2-yl]-amine] | 0.587 ± 0.01 | 61.7 | –
Cc1nn(C)c(C)c1-c1cccc2c1CC[C@H](N(C)Cc1ccccc1)C2 [Example F, (2S)-Benzyl-methyl-[5-(1,3,5-trimethyl-1H-pyrazol-4-yl)-1,2,3,4-tetrahydro-naphthalen-2-yl]-amine] | 0.187 | – | –

— US8097641B2, “Heterocyclyl substituted tetrahydronaphthalene derivatives as 5-HT7 receptor ligands” (Laboratorios del Dr. Esteve, S.A., priority 2007, dated 2012)
